Columns and labels:
IKKε = molecular target: T1, IKKε (Homo sapiens, UniProt Q14164); test: ADP-Glo Kinase Assay, inhibition activity on IKKε; format: biochemical
T1 construct: purchased Promega and/or Invitrogen V4158; PR8031B; V3991 (not assigned to the two kinases)
T1 sequence (Q14164 1-716): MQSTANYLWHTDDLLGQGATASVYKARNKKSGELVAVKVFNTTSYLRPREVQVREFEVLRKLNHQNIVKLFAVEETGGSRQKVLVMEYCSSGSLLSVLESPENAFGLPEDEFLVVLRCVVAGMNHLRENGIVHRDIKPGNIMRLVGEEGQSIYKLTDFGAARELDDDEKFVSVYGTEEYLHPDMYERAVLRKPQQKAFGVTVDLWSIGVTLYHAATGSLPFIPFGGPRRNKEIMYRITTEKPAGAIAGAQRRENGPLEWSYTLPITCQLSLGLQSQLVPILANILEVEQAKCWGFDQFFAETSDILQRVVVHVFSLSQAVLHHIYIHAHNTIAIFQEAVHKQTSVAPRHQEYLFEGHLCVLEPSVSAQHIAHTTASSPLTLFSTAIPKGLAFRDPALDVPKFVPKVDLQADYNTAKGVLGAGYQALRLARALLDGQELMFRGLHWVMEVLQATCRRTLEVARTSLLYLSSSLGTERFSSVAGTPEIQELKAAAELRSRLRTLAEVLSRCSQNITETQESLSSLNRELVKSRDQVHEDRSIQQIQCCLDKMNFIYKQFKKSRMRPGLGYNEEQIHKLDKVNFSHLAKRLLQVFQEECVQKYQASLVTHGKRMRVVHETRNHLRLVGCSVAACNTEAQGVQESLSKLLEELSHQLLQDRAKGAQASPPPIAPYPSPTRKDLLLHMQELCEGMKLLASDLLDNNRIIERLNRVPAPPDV
In short: (§1)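 In 40 mM Tris pH 7.5 with 20 mM MgCl2 and 0.1 mg/mL BSA, each enzyme (IKKε or TBK1 kinase system) was run according to the manufacturer's protocol. ADP formed was detected by ADP-Glo luminescence.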

TBK1 = molecular target: T2, TBK1 (Homo sapiens, UniProt Q9UHD2); test: ADP-Glo Kinase Assay, inhibition activity on TBK1; format: biochemical
T2 construct: purchased Promega (Invitrogen is also named in the same bracket) V4158; PR8031B; V3991 (not assigned to the two kinases)
T2 sequence (Q9UHD2 1-729): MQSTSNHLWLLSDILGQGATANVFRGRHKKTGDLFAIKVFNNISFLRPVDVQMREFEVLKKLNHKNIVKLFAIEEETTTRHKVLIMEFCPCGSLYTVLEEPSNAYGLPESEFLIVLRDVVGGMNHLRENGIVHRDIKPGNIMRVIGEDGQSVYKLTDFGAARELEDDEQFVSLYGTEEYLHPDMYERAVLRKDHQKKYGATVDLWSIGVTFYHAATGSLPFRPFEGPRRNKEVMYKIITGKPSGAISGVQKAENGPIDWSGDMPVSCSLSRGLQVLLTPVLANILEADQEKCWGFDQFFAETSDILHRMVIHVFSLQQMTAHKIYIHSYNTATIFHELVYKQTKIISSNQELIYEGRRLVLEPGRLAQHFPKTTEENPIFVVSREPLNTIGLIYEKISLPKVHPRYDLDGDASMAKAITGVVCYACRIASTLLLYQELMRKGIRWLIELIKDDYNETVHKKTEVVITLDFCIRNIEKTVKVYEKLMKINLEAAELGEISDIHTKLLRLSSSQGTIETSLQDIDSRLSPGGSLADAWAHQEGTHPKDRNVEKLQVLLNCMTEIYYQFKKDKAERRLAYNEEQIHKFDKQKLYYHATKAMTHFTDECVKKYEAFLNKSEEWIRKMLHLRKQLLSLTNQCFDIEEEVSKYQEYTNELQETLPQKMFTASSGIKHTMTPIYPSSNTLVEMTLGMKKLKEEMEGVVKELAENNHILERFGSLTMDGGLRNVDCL
In short: as §1

SMILES	IC50 (IKKε)	IC50 (TBK1)
CC1C=C(c2c[nH]c3ncc(-c4ccc(CN5CCN(C)CC5)cc4)cc23)CCN1C(=O)NC1CC1 (stereo not drawn) [Example 95, N-cyclopropyl-2-methyl-4-(5-(4-((4-methylpiperazin-1-yl)methyl)phenyl)-1H-pyrrolo[2,3-b]pyridin-3-yl)-5,6-dihydropyridine-1(2H)-carboxamide]	14 nM	7.4 nM
CCC1C=C(c2c[nH]c3ncc(-c4ccc(C(=O)N5CCN(C)CC5)cc4)cc23)CCN1C(=O)NC(C)C (stereo not drawn) [Example 113, 6-Ethyl-N-isopropyl-4-(5-(4-(4-methylpiperazine-1-carbonyl)phenyl)-1H-pyrrolo[2,3-b]pyridin-3-yl)-3,6-dihydropyridine-1(2H)-carboxamide]	46 nM	18 nM
O=C(c1ccc(-c2cnc3[nH]cc(C4=CCN(C(=O)c5cccs5)CC4)c3c2)cc1)N1CCOCC1 [Example 209, (4-(5-(4-(morpholine-4-carbonyl)phenyl)-1H-pyrrolo[2,3-b]pyridin-3-yl)-5,6-dihydropyridin-1(2H)-yl)(thiophen-2-yl)methanone]	140 nM	7 nM
CS(=O)(=O)c1cccc(-c2cnc3[nH]cc(C4=CCN(C(=O)NC5CCCC5)CC4)c3n2)c1 [Example 228, N-cyclopentyl-4-(2-(3-(methylsulfonyl)phenyl)-5H-pyrrolo[2,3-b]pyrazin-7-yl)-5,6-dihydropyridine-1(2H)-carboxamide]	400 nM	90 nM
CC1C=C(c2c[nH]c3ncc(-c4ccc(CN5CCN(C)CC5)s4)cc23)CCN1C(=O)NC1CCCC1 (racemic) [Example 107, N-cyclopentyl-2-methyl-4-(5-(5-((4-methylpiperazin-1-yl)methyl)thiophen-2-yl)-1H-pyrrolo[2,3-b]pyridin-3-yl)-5,6-dihydropyridine-1(2H)-carboxamide]	3.2 nM	2.7 nM
CC(C)NC(=O)N1C2C=C(c3c[nH]c4ncc(-c5ccc(CN6CCOCC6)s5)cc34)CC1CC2 (stereo not drawn) [Example 117, N-isopropyl-3-(5-(5-(morpholinomethyl)thiophen-2-yl)-1H-pyrrolo[2,3-b]pyridin-3-yl)-8-azabicyclo[3.2.1]oct-3-ene-8-carboxamide]	4790 nM	2700 nM
COc1ccc(-c2cnc3[nH]cc(C4CCN(C(=O)NC(C)C)CC4)c3c2)cc1OC [Example 235, 4-(5-(3,4-dimethoxyphenyl)-1H-pyrrolo[2,3-b]pyridin-3-yl)-N-isopropylpiperidine-1-carboxamide]	> 10000 nM	> 10000 nM
CCC(C)NC(=O)N1CC=C(c2c[nH]c3ncc(-c4ccc(CN5CCN(C)CC5)s4)cc23)CC1 (stereo not drawn) [Example 42, N-(sec-butyl)-4-(5-(5-((4-methylpiperazin-1-yl)methyl)thiophen-2-yl)-1H-pyrrolo[2,3-b]pyridin-3-yl)-5,6-dihydropyridine-1(2H)-carboxamide]	62 nM	1.9 nM
CN1CCN(Cc2ccc(-c3cnc4[nH]cc(C5=CCN(C(=O)NC6COC6)CC5)c4c3)s2)CC1 [Example 79, 4-(5-(5-((4-Methylpiperazin-1-yl)methyl)thiophen-2-yl)-1H-pyrrolo[2,3-b]pyridin-3-yl)-N-(oxetan-3-yl)-5,6-dihydropyridine-1(2H)-carboxamide]	28 nM	320 nM
CCC(CC)NC(=O)N1CC=C(c2c[nH]c3ncc(-c4ccc(CN5CCOCC5)s4)cc23)CC1 [Example 40, 4-(5-(5-(Morpholinomethyl)thiophen-2-yl)-1H-pyrrolo[2,3-b]pyridin-3-yl)-N-(pentan-3-yl)-3,6-dihydropyridine-1(2H)-carboxamide]	170 nM	74 nM
CN1CCN(Cc2ccc(-c3cnc4[nH]cc(C5=CCN(C(=O)c6cccs6)CC5)c4c3)s2)CC1 [Example 205, (4-(5-(5-((4-methylpiperazin-1-yl)methyl)thiophen-2-yl)-1H-pyrrolo[2,3-b]pyridin-3-yl)-5,6-dihydropyridin-1(2H)-yl)(thiophen-2-yl)methanone]	23 nM	3.3 nM
COc1ccc(-c2cnc3[nH]cc(C4=CCN(C(=O)NC5CCCC5)CC4)c3c2)cc1S(=O)(=O)N1CCOCC1 [Example 63, N-cyclopentyl-4-(5-(4-methoxy-3-(morpholinosulfonyl)phenyl)-1H-pyrrolo[2,3-b]pyridin-3-yl)-5,6-dihydropyridine-1(2H)-carboxamide]	440 nM	29 nM
Cc1nnc(-c2cnc3[nH]cc(C4=CCN(C(=O)OC(C)(C)C)CC4)c3c2)s1 [Example 170, tert-Butyl 4-(5-(5-methyl-1,3,4-thiadiazol-2-yl)-1H-pyrrolo[2,3-b]pyridin-3-yl)-5,6-dihydropyridine-1(2H)-carboxylate]	280 nM	32 nM
CC(C)NC(=O)N1CC=C(c2c[nH]c3ncc(-c4ccc(CN5CCOCC5)cc4)cc23)CC1 [Example 30, N-isopropyl-4-(5-(4-(morpholinomethyl)phenyl)-1H-pyrrolo[2,3-b]pyridin-3-yl)-5,6-dihydropyridine-1(2H)-carboxamide]	8.8 nM	4.5 nM
CC(C)NC(=O)N1CCC(c2c[nH]c3ncc(-c4ccc(CN5CCN(C)CC5)cc4)cc23)=CC1C (stereo not drawn) [Example 86, N-isopropyl-2-methyl-4-(5-(4-((4-methylpiperazin-1-yl)methyl)phenyl)-1H-pyrrolo[2,3-b]pyridin-3-yl)-5,6-dihydropyridine-1(2H)-carboxamide]	3.5 nM	2.8 nM
CC(=O)N1CC=C(c2c[nH]c3ncc(-c4ccc(CN5CCOCC5)s4)cc23)CC1 [Example 8, 1-(4-(5-(5-(Morpholinomethyl)thiophen-2-yl)-1H-pyrrolo[2,3-b]pyridin-3-yl)-3,6-dihydropyridin-1(2H)-yl)ethan-1-one]	660 nM	140 nM
CC(C)NC(=O)N1CC=C(c2c[nH]c3ncc(-c4ccc(OC5CCOCC5)cc4)cc23)CC1 [Example 38, N-isopropyl-4-(5-(4-((tetrahydro-2H-pyran-4-yl)oxy)phenyl)-1H-pyrrolo[2,3-b]pyridin-3-yl)-3,6-dihydropyridine-1(2H)-carboxamide]	21 nM	29 nM
COc1ccc(-c2cnc3[nH]cc(C4=CCN(CC(C)C)CC4)c3c2)cc1OC [Example 5, 5-(3,4-Dimethoxyphenyl)-3-(1-isobutyl-1,2,3,6-tetrahydropyridin-4-yl)-1H-pyrrolo[2,3-b]pyridine]	2750 nM	1560 nM
COc1ccc(-c2cnc3[nH]cc(C4=CC(c5ccccc5)N(C(=O)NC(C)C)CC4)c3c2)cc1OC (stereo not drawn) [Example 119, 4-(5-(3,4-Dimethoxyphenyl)-1H-pyrrolo[2,3-b]pyridin-3-yl)-N-isopropyl-2-phenyl-5,6-dihydropyridine-1(2H)-carboxamide]	3470 nM	5410 nM
CC(C)NC(=O)N1CC=C(c2c[nH]c3ncc(-c4ccc(CN5CCN(C)CC5)o4)cc23)CC1 [Example 35, N-isopropyl-4-(5-(5-((4-methylpiperazin-1-yl)methyl)furan-2-yl)-1H-pyrrolo[2,3-b]pyridin-3-yl)-5,6-dihydropyridine-1(2H)-carboxamide]	110 nM	18 nM
CN1CC=C(c2c[nH]c3ncc(-c4ccc(CN5CCOCC5)s4)cc23)CC1 [Example 1, 4-((5-(3-(1-Methyl-1,2,3,6-tetrahydropyridin-4-yl)-1H-pyrrolo[2,3-b]pyridin-5-yl)thiophen-2-yl)methyl)morpholine]	> 10000 nM	6860 nM

— patent US10239873B2, “7-azaindole or 4,7-diazaindole derivatives as IKKϵ epsilon and TBK1 inhibitor and pharmaceutical composition comprising same” (GREEN CROSS CORPORATION, priority 2015, dated 2019)
